Test results from patent publication US7932281B2, “Amine-based compound and use thereof” (Kureha Corporation, priority 2004, dated 2011).

Legend:
[1] = system: HIV-1IIIB infected MT-4 cells; experiment: Anti-HIV activity, HIV-1IIIB infected MT-4 cells, MTT method (Test Example 1); format: cell-based; conditions: Human immunodeficiency virus 1, MT4, 120 h, concentration required for inhibition of cell disorder due to HIV infection by 50%, MOI 0.01, 5 days
Method: Immediately after infection, HIV-1IIIB infected MT-4 cells (3.0×10^4/well, MOI (Multiplicity of infection): 0.01) were added to a 96-well microtiter plate together with the test compounds having different concentrations. The cells were cultured in a carbon dioxide incubator at 37° C. for 5 days, and the number of living cells was measured in accordance with the MTT (tetrazolium) method ([…], et al., J. of Virol. Method, 20, 309-321 […]). The antiviral activity is represented by the concentration required for inhibition of cell disorder due to HIV infection by 50% (EC50: 50% Effective Concentration) (μM), and the results are shown in Table 2.

[2] = target: T1, CXCR4 (Homo sapiens, UniProt P61073); experiment: Inhibition of 125I-SDF-1α binding to receptors CXCR4 on MT-4 cells (Test Example 2); conditions: binding-inhibition % at 0.01 μM, 2 hours under ice-cooling, read-out: Inhibition rate (%)
T1 construct: endogenous in cells; host or cells: MT-4 cells
T1 sequence (P61073 whole entry): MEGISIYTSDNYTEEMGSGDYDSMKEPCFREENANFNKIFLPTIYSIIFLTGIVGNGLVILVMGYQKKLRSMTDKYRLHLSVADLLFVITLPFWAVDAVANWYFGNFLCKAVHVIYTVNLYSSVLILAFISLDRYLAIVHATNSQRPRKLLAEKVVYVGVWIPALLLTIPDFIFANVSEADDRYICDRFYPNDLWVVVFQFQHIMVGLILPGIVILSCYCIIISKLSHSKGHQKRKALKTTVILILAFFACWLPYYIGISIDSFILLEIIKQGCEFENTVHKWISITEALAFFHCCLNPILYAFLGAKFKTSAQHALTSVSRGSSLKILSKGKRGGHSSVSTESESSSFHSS
Method: MT-4 cells (5×10^6/0.2 ml/well) were cultured on a 24-well microtiter plate. After the cells were incubated for 24 hours at 37° C. in a carbon dioxide gas incubator, a culture medium was replaced with a buffer solution (0.1% BSA-containing RPMI-1640). Together with a ligand ^125I-SDF-1α (specific activity: 2,200 Ci/mmol; available from Daiichi Pure Chemicals Co., Ltd. (Tokyo)), test materials with various concentrations were subjected to a binding reaction for 2 hours under ice-cooling. […] Then, a rate of inhibition of the binding between radioactive ligands and receptors CXCR4 by a test material was calculated (a binding-inhibition % at 0.01 μM).

[3] = system: SD mice; experiment: Acute toxicity, single transvenous administration (Test Example 3); format: in vivo; conditions: 6-week-old male SD mice, 2.5 mg/kg transvenously once in physiological saline
Method: The aforementioned compound was examined for acute toxicity. Specifically, 6-week-old SD mice (male) were divided into several groups (2 to 3 mice in each group). Subsequently, each of the compounds of Examples was dissolved in a physiological saline solution, and the solution was transvenously administered to the mice (dose: 2.5 mg/kg) once. Then, the number of dead mice was counted.

[4] = Conversion of Compound No. 91 to Compound No. 84 in rat serum, LCMS (Test Example 5); format: in vitro ADME; conditions: for Proportion found by LCMS, Rat, 0 minutes / Proportion found by LCMS, Rat, 30 minutes: Compound No. 91 incubated in rat serum/saline
Method: (§1) 147 μl of human serum pool (manufactured by Cosmo Bio Co. Ltd.) or pool serum obtained by centrifugation (3,500 rpm for 10 minutes) of whole blood collected from a Crj:CD (SD) IGS male rat (manufactured by Charles River Laboratories Japan, INC.) was dispensed in a tube. 147 μl of a physiological saline solution (manufactured by Hikari Pharmaceutical Co., Ltd.) was dispensed thereto. Subsequently, the whole was preincubated for 3 minutes. The solution was added and mixed with a solution (3 μl) obtained by: diluting a 25 mmol/l DMSO solution containing the Compound No. 91 with a physiological saline solution to adjust to 500 μmol/l. The reaction was allowed to start in a thermomixer. After 30 minutes later, the solution was added with 0.1% formic acid/methanol solution (600 μl) and the whole was mixed. The solution was subjected to centrifugation (15,000 rpm for 5 minutes) and the supernatant was subjected to LCMS (liquid chromatograph mass spectrometry) measurement.

[5] = Conversion of Compound No. 91 to Compound No. 84 in human serum, LCMS (Test Example 5); format: in vitro ADME; conditions: for Proportion found by LCMS, Human, 0 minutes / Proportion found by LCMS, Human, 30 minutes: Compound No. 91 incubated in human serum/saline
Method: as §1

SMILES	EC50 [1] [nM]	inhibition at 0.01 µM [2] [%]	Dead mice/test mice [3]	Proportion found by LCMS, Rat, 0 minutes [4] [%]	Proportion found by LCMS, Rat, 30 minutes ([4]; 30 minutes) [%]	Proportion found by LCMS, Human, 0 minutes [5] [%]	Proportion found by LCMS, Human, 30 minutes ([5]; 30 minutes) [%]	conversion of prodrug in serum ([4]; rat serum, 30 minutes)	conversion of prodrug in serum ([5]; human serum, 30 minutes)
CCCN(CCC)CCCCN(CC(=O)O)Cc1ccc(CN(Cc2ncc[nH]2)Cc2nccn2C)cc1 [Compound No. 84, [(4-dipropylamino-butyl)-(4-[[(1H-imidazol-2-ylmethyl)-(1-methyl-1H-imidazol-2-ylmethyl)-amino]-methyl]-benzyl)-amino]-acetic acid]	3	88.3	0/3	24	100	1	80	–	–
CCCN(CCC)CCCCN(CC(=O)OCC)Cc1ccc(CN(Cc2ncc[nH]2)Cc2nccn2C)cc1 [Compound No. 91]	3	87.7	0/3	76	0	99	20	converted to the Compound No. 84	converted to the Compound No. 84
